From article PMC9025269, “Synthesis and Anti-Hepatitis B Activities of 3′-Fluoro-2′-Substituted Apionucleosides” (Molecules, 2022)

How the values were obtained:
[1] = target: T1, HIV-1 reverse transcriptase (HIV-1 RT) (Human immunodeficiency virus type 1 group M subtype B, UniProt P03366); experiment: HIV-1 reverse transcriptase RdDp activity assay; type: biochemical
T1 construct: HIV-1 reverse transcriptase (HIV-1 RT) was purchased from Abcam (cat#ab63979); purchased Abcam ab63979
Description: HIV-1 reverse transcriptase (HIV-1 RT) was purchased from Abcam (cat#ab63979). Recombinant HBV polymerase (Hepatitis B virus genotype D subtype ayw, full length) was cloned using the baculovirus system, expressed in sf9 cells, and purified with similar strategy and methods described by Lanford et al.. A DNA primer (5′-[…]-3′) was synthesized by IDTDNA and a 358-nt RNA template was synthesized in-house using Megascript T7 transcription kit (ThermoFisher, cat#AM1334). dNTPs were purchased from Thermo Fisher and ^3H-dTTP from Perkin Elmer. Filter plates were purchased from Millipore (cat#MABN0V050) and microscint-20 was purchased from Perkin Elmer (cat#6013621).
The RNA-dependent DNA polymerization (RdDp) activity of HIV-1 RT was measured by the incorporation of radioactively labeled nucleotides by HIV-1 RT into acid-insoluble DNA products from the DNA primer primed RNA template. To test compound inhibition, the reactions were performed at 30 °C for 40 min in a reaction mixture containing reaction buffer (50 mM Tris-Cl, pH 7.5, 100 mM KCl, 12.5 mM MgCl2, 4 mM DTT), 1 nM HIV-1 RT, 0.1 µM DNA primer, 0.02 µM RNA template, 10% DMSO, 0.1 µM dATP, 1 µM dGTP, 0.1 µM dCTP, 0.32 µM ^3H-dTTP, and compounds at various concentrations. The 50 µL reactions were performed in 96-well plates. The reactions were quenched with a 60 µL cold mixture of 20% (w/v) TCA and 0.5 mM ATP and incubated at 4 °C for 1 h. The reactions were loaded onto 96-well filter plates. The filters on plates were washed three times with 10% TCA and once with 70% ethanol on a Millipore plate wash station with vacuum applied. The filters on the plate were air-dried and 40 μL Microscint-20 was added to each well. The acid-precipitated tritiated DNA products retained on the filters were detected by a Trilux MicroBeta scintillation reader (Perkin Elmer).
All data were analyzed with GraphPad Prism. The compound concentration at which the enzyme-catalyzed rate was reduced by 50% (IC50) was calculated by fitting the data to the equation Y = % Min + (% Max − % Min) / (1 + 10^((logIC50-X)*h)), where Y corresponds to the percent inhibition to the enzyme activity, % Min is the residual inhibition activity without compound, % Max is the maximum inhibition of enzyme activity at saturating compound concentration, and X corresponds to the log of compound concentrations, and h is the hillslope.

human DNA polymerase α = target: T2, human DNA polymerase α (Homo sapiens, UniProt P09884); experiment: Human DNA polymerase α DdDp assay; type: biochemical
T2 construct: purchased CHIMERx 1075-1
T2 sequence (P09884 1-1462): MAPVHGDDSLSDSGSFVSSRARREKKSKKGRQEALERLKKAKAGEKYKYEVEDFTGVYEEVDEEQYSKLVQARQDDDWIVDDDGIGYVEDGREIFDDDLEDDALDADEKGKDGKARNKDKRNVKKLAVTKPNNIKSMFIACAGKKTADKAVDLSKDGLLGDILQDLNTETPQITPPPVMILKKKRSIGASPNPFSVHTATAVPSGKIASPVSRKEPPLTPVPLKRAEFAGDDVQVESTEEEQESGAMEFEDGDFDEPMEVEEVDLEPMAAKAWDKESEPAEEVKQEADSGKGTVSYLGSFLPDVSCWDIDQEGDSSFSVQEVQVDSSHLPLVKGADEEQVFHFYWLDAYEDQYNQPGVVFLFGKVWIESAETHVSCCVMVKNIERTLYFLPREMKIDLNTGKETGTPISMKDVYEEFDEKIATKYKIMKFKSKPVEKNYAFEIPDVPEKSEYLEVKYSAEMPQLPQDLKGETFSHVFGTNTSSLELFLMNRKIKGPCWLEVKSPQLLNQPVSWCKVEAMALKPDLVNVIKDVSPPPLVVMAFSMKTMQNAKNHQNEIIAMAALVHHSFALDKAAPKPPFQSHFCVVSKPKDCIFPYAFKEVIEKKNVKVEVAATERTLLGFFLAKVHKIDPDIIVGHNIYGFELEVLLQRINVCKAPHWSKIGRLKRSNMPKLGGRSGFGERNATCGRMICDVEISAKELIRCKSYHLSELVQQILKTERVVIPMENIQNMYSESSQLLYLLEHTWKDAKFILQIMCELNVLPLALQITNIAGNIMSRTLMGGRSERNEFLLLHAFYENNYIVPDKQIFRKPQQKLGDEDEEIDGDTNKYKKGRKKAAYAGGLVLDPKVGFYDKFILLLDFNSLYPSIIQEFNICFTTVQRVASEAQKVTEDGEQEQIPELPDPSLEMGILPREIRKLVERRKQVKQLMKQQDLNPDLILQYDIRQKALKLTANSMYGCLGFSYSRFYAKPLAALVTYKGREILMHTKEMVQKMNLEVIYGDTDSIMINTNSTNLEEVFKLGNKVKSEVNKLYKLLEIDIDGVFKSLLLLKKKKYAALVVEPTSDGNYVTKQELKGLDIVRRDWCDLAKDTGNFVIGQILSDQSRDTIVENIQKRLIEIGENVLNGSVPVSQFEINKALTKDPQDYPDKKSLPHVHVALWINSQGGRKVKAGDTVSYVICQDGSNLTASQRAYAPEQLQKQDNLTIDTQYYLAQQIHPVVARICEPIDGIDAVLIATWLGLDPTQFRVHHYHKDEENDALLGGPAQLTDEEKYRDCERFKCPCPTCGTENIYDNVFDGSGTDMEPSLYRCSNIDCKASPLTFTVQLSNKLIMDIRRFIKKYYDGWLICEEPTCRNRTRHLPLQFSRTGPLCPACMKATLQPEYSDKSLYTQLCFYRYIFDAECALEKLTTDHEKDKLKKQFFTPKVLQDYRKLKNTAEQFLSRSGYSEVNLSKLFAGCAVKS
Experimental: The DNA-dependent DNA polymerization (DdDp) activity of human DNA polymerases α, β, and γ was measured as described previously. Briefly, the assays were run with 5 U/mL recombinant DNA polymerase α (CHIMERx, cat#1075-1), 0.5 U/mL recombinant DNA polymerase β (CHIMERx, cat#1077-1), or 0.1 μg/mL recombinant DNA polymerase γ (Abcam, cat#196066), 62 μg/mL activated calf thymus DNA, 50 mM Tris-HCl (pH 8.0), 60 mM KCl, 5 mM MgCl2, 4 mM dithiothreitol (DTT), 0.1 mg/mL BSA, 2 μM dCTP, 2 μM dATP, 2 μM dGTP, 0.05 μCi/μL ^3H-dTTP (Perkin Elmer) and compounds at various concentrations at 30 °C for 2 h. The 50 μL reactions were processed following the same filter plate method as described above for HIV-1 RT. Acid-precipitated tritiated DNA products retained on the filters were detected by a Trilux MicroBeta scintillation reader (Perkin Elmer). All data were analyzed as described above for HIV-1 RT.

With `Nc1ncnc2c1ncn2[C@@H]1OC[C@](F)(COP(=O)(O)OP(=O)(O)OP(=O)(O)O)[C@H]1CO` [Compound 38, ((3S,4S,5R)-5-(6-Amino-9H-purin-9-yl)-3-fluoro-4-(hydroxymethyl)tetrahydrofuran-3-yl)methyl triphosphate] the IC50 [1] was 320 nM, the “inhibition of HIV-1 RT” value [1] was “potent inhibitor of HIV-1 RT” and the IC50 (human DNA polymerase α) was 80 µM. For the same compound, the “inhibition of human DNA polymerases” value (human DNA polymerase α; human DNA polymerases α, β and γ together) was “low or no inhibition activity against human DNA polymerases”.
